Source: US20220106272A1 (Terran Biosciences, Inc., priority 2018, published 2022)

Test: Metabolic stability in human liver microsomes
Assay type: in vitro ADME
Details: 0.25 μM test compound; for half-life at 0.25 μM: 2 mM NADPH, 37° C.; for CLint scaled at 0.25 μM: human liver microsomes
Procedure: Microsomal Assay: Human liver microsomes (20 mg/mL) were obtained from Xenotech, LLC (Lenexa, Kans.). β-nicotinamide adenine dinucleotide phosphate, reduced form (NADPH), magnesium chloride (MgCl2), and dimethyl sulfoxide (DMSO) were purchased from Sigma-Aldrich.
Determination of Metabolic Stability: 7.5 mM stock solutions of test compounds of structural formula (I) (e.g., of an embodiment or aspect of embodiment thereof described herein) or structural formula (II), or pharmaceutically acceptable salt thereof, were prepared in DMSO. The 7.5 mM stock solutions were diluted to 12.5-50 μM in acetonitrile (ACN). The 20 mg/mL human liver microsomes were diluted to 0.625 mg/mL in 0.1 M potassium phosphate buffer, pH 7.4, containing 3 mM MgCl2. The diluted microsomes were added to wells of a 96-well deep-well polypropylene plate in triplicate. A 10 μL aliquot of the 12.5-50 μM test compound was added to the microsomes and the mixture was pre-warmed for 10 minutes. Reactions were initiated by addition of pre-warmed NADPH solution. The final reaction volume was 0.5 mL and contained […] human liver microsomes, 0.25 μM test compound, and 2 mM NADPH in 0.1 M potassium phosphate buffer, pH 7.4, and 3 mM MgCl2. The reaction mixtures were incubated at 37° C., and 50 μL aliquots were removed at 0, 5, 10, 20, and 30 minutes and added to shallow-well 96-well plates which contain 50 μL of ice-cold ACN (acetonitrile) with internal standard to stop the reactions. The plates were stored at 4° C. for 20 minutes after which 100 μL of water was added to the wells of the plate before centrifugation to pellet precipitated proteins. Supernatants were transferred to another 96-well plate and analyzed for amounts of parent remaining by LC-MS/MS using an Applied Bio-systems API 4000 mass spectrometer. The same procedure was followed for the non-deuterated counterpart of the compound of Formula I and the positive control, 7-ethoxycoumarin (1 μM). Testing was done in triplicate.
Data analysis: The in vitro t1/2s for test compounds were calculated from the slopes of the linear regression of % parent remaining (ln) vs incubation time relationship.
k=−[slope of linear regression of % parent remaining (ln) vs incubation time]
The apparent intrinsic clearance was calculated using the following equation:
CLint(mL/min/kg)=(0.693/in vitro t1/2)(Incubation Volume/mg of microsomes)(45 mg microsomes/gram of liver)(20 gm of liver/kg b.w.)
Data analysis was performed using Microsoft Excel Software.

[1] = pH 7.4, EXP# 2506, 4.0 mg/mL human liver microsomes
[2] = pH 7.4, EXP# 2506, apparent intrinsic clearance
[3] = pH 7.4, EXP# 2503, 4.0 mg/mL human liver microsomes
[4] = pH 7.4, EXP#2503, apparent intrinsic clearance

Row | SMILES | half-life at 0.25 μM [1] [min] | CLint scaled at 0.25 μM [2] [mL/min/kg] | half-life at 0.25 μM [3] [min] | CLint scaled at 0.25 μM [4] [mL/min/kg]
1 | [2H]C([2H])([2H])Oc1cccc([C@H](O)C2CCN(CCc3ccc(F)cc3)CC2)c1OC [Compound 115, (R)-(1-(4-fluorophenethyl)piperidin-4-yl)(2-methoxy-3-(methoxy-d3)phenyl)methanol] | 69.5 | 2.3 |  | 
2 | [2H]C([2H])([2H])Oc1c(OC)cccc1[C@H](O)C1CCN(CCc2ccc(F)cc2)CC1 [Compound 131, (R)-(1-(4-fluorophenethyl)piperidin-4-yl)(3-methoxy-2-(methoxy-d3)phenyl)methanol] | 71.3 | 2.4 |  | 
3 | [2H]C([2H])([2H])Oc1cccc([C@H](O)C2CCN(CCc3ccc(F)cc3)CC2)c1OC([2H])([2H])[2H] [Compound 147, (R)-(2,3-bis(methoxy-d3)phenyl)(1-(4-fluorophenethyl)piperidin-4-yl)methanol] | 67.2 | 2.3 |  | 
4 | [2H]C([2H])([2H])Oc1cccc([C@]([2H])(O)C2CCN(CCc3ccc(F)cc3)CC2)c1OC([2H])([2H])[2H] [Compound 148, (R)-(2,3-bis(methoxy-d3)phenyl)(1-(4-fluorophenethyl)piperidin-4-yl)methan-d-ol] | 71.2 | 2.2 |  | 
5 | [2H]C([2H])([2H])Oc1cccc([C@H](O)C2CCN(C([2H])([2H])Cc3ccc(F)cc3)CC2)c1OC([2H])([2H])[2H] [Compound 151, (R)-(2,3-bis(methoxy-d3)phenyl)(1-(2-(4-fluorophenyl)ethyl-1,1-d2)piperidin-4-yl)methanol] | 69.9 | 2.3 |  | 
6 | [2H]C([2H])([2H])Oc1cccc([C@H](O)C2CCN(C([2H])([2H])C([2H])([2H])c3ccc(F)cc3)CC2)c1OC([2H])([2H])[2H] [Compound 159, (R)-(2,3-bis(methoxy-d3)phenyl)(1-(2-(4-fluorophenyl)ethyl-1,1,2,2-d4)piperidin-4-yl)methanol] | 84.9 | 1.9 |  | 
7 | [2H]C1([2H])N(CCc2ccc(F)cc2)C([2H])([2H])C([2H])([2H])C([2H])([C@@H](O)c2cccc(OC)c2OC)C1([2H])[2H] [Compound 203, (R)-(2,3-dimethoxyphenyl)(1-(4-fluorophenethyl)piperidin-4-yl-2,2,3,3,4,5,5,6,6-d9)methanol] |  |  | 47.6 | 3.4
8 | [2H]C([2H])(Cc1ccc(F)cc1)N1C([2H])([2H])C([2H])([2H])C([2H])([C@@H](O)c2cccc(OC)c2OC)C([2H])([2H])C1([2H])[2H] [Compound 215, (R)-(2,3-dimethoxyphenyl)(1-(2-(4-fluorophenyl)ethyl-1,1-d2)piperidin-4-yl-2,2,3,3,4,5,5,6,6-d9)methanol] |  |  | 46.6 | 3.4
9 | [2H]C([2H])([2H])Oc1cccc([C@H](O)C2([2H])C([2H])([2H])C([2H])([2H])N(CCc3ccc(F)cc3)C([2H])([2H])C2([2H])[2H])c1OC([2H])([2H])[2H] [Compound 347, (R)-(2,3-bis(methoxy-d3)phenyl)(1-(4-fluorophenethyl)piperidin-4-yl-2,2,3,3,4,5,5,6,6-d9)methanol] |  |  | 48.9 | 3.2
10 | [2H]C([2H])([2H])Oc1cccc([C@H](O)C2([2H])C([2H])([2H])C([2H])([2H])N(C([2H])([2H])Cc3ccc(F)cc3)C([2H])([2H])C2([2H])[2H])c1OC([2H])([2H])[2H] [Compound 359, (R)-(2,3-bis(methoxy-d3)phenyl)(1-(2-(4-fluorophenyl)ethyl-1,1-d2)piperidin-4-yl-2,2,3,3,4,5,5,6,6-d9)methanol] |  |  | 65.8 | 2.4
11 | [2H]C([2H])([2H])Oc1cccc([C@H](O)C2([2H])C([2H])([2H])C([2H])([2H])N(C([2H])([2H])C([2H])([2H])c3ccc(F)cc3)C([2H])([2H])C2([2H])[2H])c1OC([2H])([2H])[2H] [Compound 383, (R)-(2,3-bis(methoxy-d3)phenyl)(1-(2-(4-fluorophenyl)ethyl-1,1,2,2-d4)piperidin-4-yl-2,2,3,3,4,5,5,6,6-d9)methanol] |  |  | 74 | 2.3
12 | COc1cccc([C@H](O)C2CCN(CCc3ccc(F)cc3)CC2)c1OC [volinanserin, (R)-(+)-α-(2,3-dimethoxyphenyl)-1-[2-(4-fluorophenyl)ethyl]-4-piperidinemethanol, reference compound] | 48.5 | 3.2 | 44.7 | 3.5
